Publication PMC9166766 (Experimental & Molecular Medicine, 2022)
No end group written: not given here.

System: Jurkat T cells (PMA and ionomycin-induced gene expression)
Assay: mRNA sequencing of activated Jurkat T cells
Type: cell-based, human
Description: We then extracted RNA from these cells. Construction of the cDNA library and next-generation sequencing was performed at LAS (Gimpo, Korea). We sequenced all samples on an Illumina NextSeq 500 system with 75 paired-end reads. For the RNA sequencing analysis, reads for each sample were aligned to the human genome (GRCh37/hg19 genome assembly) using STAR 2.4.0.1[25] with default settings. We used HOMER tools to quantify and normalize the defined genes in RefSeq transcripts. FPKM normalized genes were hierarchically clustered using Cluster3.0[26]. We visualized refined data with Java Treeview (http://jtreeview.sourceforge.net). We conducted gene ontology analysis of each cluster using the DAVID web tool (https://david.ncifcrf.gov). Finally, we visualized the expression levels of target genes using the Integrative Genomics Viewer (http://software.broadinstitute.org/software/igv). The raw data were submitted to the NCBI Gene Expression Omnibus under accession number GSE185561.
Fig. 3 The CABIN1 peptide inhibits T-cell activation. a Heatmap of altered genes affected by FK506 treatment or CABIN1 peptide expression upon T-cell activation. b Gene Ontology analysis of cluster III. c mRNA expression levels of genes included in cluster III. d qRT-PCR data of genes in c. The experiment was independently repeated at least three times, and the data are presented as the mean ± standard deviation. Statistical differences were determined using two-tailed Student’s t-test. *p < 0.05, **p < 0.01, ***p < 0.001, NC negative control.

CABIN1-L-1-2: 10 amino acids from proline 2146 to proline 2155 of full-length CABIN1; expressed GST-, GAL4 DBD- or HA-mCherry-tagged (PEITVTPPTP; also: expressed GST-, GAL4 DBD- or HA-mCherry-tagged, end not given here)
CD27 and CD70 expression (Jurkat, PMA and ionomycin 8 h): repressed
RNA levels of T-cell activation markers (IL2, IL3, NFATC1, CCL4, CCL20, CXCL8) (Jurkat, PMA and ionomycin 8 h): reduced the RNA levels
TM4SF1 expression (P+I 8 h, NC 0, NC_P+I 3.268): 0.907 FPKM
CD200 expression (P+I 8 h, NC 0, NC_P+I 3.759): 0.094 FPKM
ZP4 expression (P+I 8 h, NC 0, NC_P+I 6.38): 5.182 FPKM
CCL3L1 expression (P+I 8 h, NC 0, NC_P+I 6.448): 0.079 FPKM
CCL3L3 expression (P+I 8 h, NC 0, NC_P+I 6.524): 0.079 FPKM
CCL1 expression (P+I 8 h, NC 0, NC_P+I 9.86): 0.415 FPKM
NR4A2 expression (P+I 8 h, NC 0, NC_P+I 10.173): 0.356 FPKM
CCL4L2 expression (P+I 8 h, NC 0, NC_P+I 12.758): 0.328 FPKM
CCL4L1 expression (P+I 8 h, NC 0, NC_P+I 13.27): 0.328 FPKM
CSF2 expression (P+I 8 h, NC 0, NC_P+I 23.497): 0.314 FPKM
XCL1 expression (P+I 8 h, NC 0, NC_P+I 49.113): 1.144 FPKM
CCL3 expression (P+I 8 h, NC 0, NC_P+I 52.239): 0.502 FPKM
CCL20 expression (P+I 8 h, NC 0, NC_P+I 59.393): 1.279 FPKM
IL3 expression (P+I 8 h, NC 0, NC_P+I 229.054): 6.298 FPKM
CCL4 expression (P+I 8 h, NC 0, NC_P+I 247.287): 4.062 FPKM
IL2 expression (P+I 8 h, NC 0, NC_P+I 397.807): 12.964 FPKM
C3 expression (P+I 8 h, NC 0.006, NC_P+I 3.907): 1.329 FPKM
TNS3 expression (P+I 8 h, NC 0.008, NC_P+I 13.196): 1.418 FPKM
PLS3 expression (P+I 8 h, NC 0.019, NC_P+I 4.717): 0.37 FPKM
CREB5 expression (P+I 8 h, NC 0.031, NC_P+I 4.533): 1.966 FPKM
IRF4 expression (P+I 8 h, NC 0.034, NC_P+I 8.439): 2.092 FPKM
CXCL8 expression (P+I 8 h, NC 0.037, NC_P+I 26.755): 3.327 FPKM
SLAMF1 expression (P+I 8 h, NC 0.042, NC_P+I 5.663): 0.275 FPKM
TNFSF14 expression (P+I 8 h, NC 0.045, NC_P+I 69.958): 4.255 FPKM
IL21R-AS1 expression (P+I 8 h, NC 0.048, NC_P+I 23.616): 3.991 FPKM
XCL2 expression (P+I 8 h, NC 0.056, NC_P+I 70.747): 2.074 FPKM
LIF expression (P+I 8 h, NC 0.063, NC_P+I 3.697): 0.231 FPKM
SHC4 expression (P+I 8 h, NC 0.069, NC_P+I 4.391): 0.686 FPKM
RGS16 expression (P+I 8 h, NC 0.077, NC_P+I 29.102): 5.595 FPKM
IL21R expression (P+I 8 h, NC 0.1, NC_P+I 34.712): 5.255 FPKM
CRTAM expression (P+I 8 h, NC 0.104, NC_P+I 100.175): 9.51 FPKM
ZNF704 expression (P+I 8 h, NC 0.107, NC_P+I 4.985): 0.183 FPKM
NTRK1 expression (P+I 8 h, NC 0.167, NC_P+I 7.941): 1.657 FPKM
PHEX expression (P+I 8 h, NC 0.188, NC_P+I 17.377): 0.786 FPKM
SORBS1 expression (P+I 8 h, NC 0.196, NC_P+I 5.08): 0.511 FPKM
TIAM2 expression (P+I 8 h, NC 0.255, NC_P+I 4.095): 0.301 FPKM
CRIM1 expression (P+I 8 h, NC 0.268, NC_P+I 3.029): 0.333 FPKM
SERPINB2 expression (P+I 8 h, NC 0.28, NC_P+I 85.882): 14.103 FPKM
CCND2 expression (P+I 8 h, NC 0.321, NC_P+I 6.436): 0.99 FPKM
CXCR3 expression (P+I 8 h, NC 0.604, NC_P+I 14.322): 1.803 FPKM
ISM1 expression (P+I 8 h, NC 0.798, NC_P+I 56.893): 3.737 FPKM
C10orf54 expression (P+I 8 h, NC 0.84, NC_P+I 7.506): 0.487 FPKM
CSF1 expression (P+I 8 h, NC 0.848, NC_P+I 13.43): 2.594 FPKM
SLC35E4 expression (P+I 8 h, NC 0.887, NC_P+I 9.069): 1.517 FPKM
ZNF827 expression (P+I 8 h, NC 0.975, NC_P+I 3.401): 1.372 FPKM
CD70 expression (P+I 8 h, NC 1.101, NC_P+I 61.146): 7.606 FPKM
PAM expression (P+I 8 h, NC 1.154, NC_P+I 5.577): 1.934 FPKM
FOXO1 expression (P+I 8 h, NC 1.167, NC_P+I 8.247): 3.736 FPKM
IRF8 expression (P+I 8 h, NC 1.168, NC_P+I 14.813): 1.914 FPKM
SCHIP1 expression (P+I 8 h, NC 1.25, NC_P+I 3.933): 1.333 FPKM
FOSL2 expression (P+I 8 h, NC 1.294, NC_P+I 7.508): 2.362 FPKM
TNFSF9 expression (P+I 8 h, NC 1.393, NC_P+I 7.107): 2.651 FPKM
IQCJ-SCHIP1 expression (P+I 8 h, NC 1.402, NC_P+I 4.253): 1.234 FPKM
STAT5A expression (P+I 8 h, NC 1.417, NC_P+I 9.105): 3.055 FPKM
TDRD9 expression (P+I 8 h, NC 1.428, NC_P+I 25.902): 1.888 FPKM
LOC729603 expression (P+I 8 h, NC 1.468, NC_P+I 5.071): 3.329 FPKM
